Data as given in PMC4605517 (PLoS ONE, 2015).
No end group written: not given here. FLAG = FLAG epitope tag (3XFLAG, N-terminal)

Key:
[1] = tested on: ubiquitinated proteins in 293T cells; assay: accumulation of ubiquitinated proteins, immunoblot of cell lysates; type: cell-based, human; details: 293T cells transfected with HA-ubiquitin and peptide plasmid; anti-ubiquitin immunoblot, actin loading control; Fig 6B
Experimental: (§1) 293T cells (purchased from ATCC) were cultured in DMEM supplemented with 10% fetal bovine serum at 37°C in a humidified atmosphere and 5% CO2. Plasmid DNA was transfected into 293T cells using Lipofectamine2000 (Invitrogen) according to the manufacturer’s instruction. Cells were harvested by gentle centrifugation at 500g for 5 minutes at 4°C after washing with PBS, and cell pellets were resuspended in 1% Triton-TBS buffer (50 mM Tris, pH7.5, 150 mM NaCl, 1 mM EDTA and protease inhibitor cocktail) followed by rocking at 4°C for 30 minutes. The supernatant was collected following centrifugation at 16,000g for 10 minutes and incubated with antibodies at 4°C overnight. Protein G sepharose beads (Sigma) were used to pull down interacting proteins by 3-hour incubation at 4°C. After extensive washing with 1% Triton TBS buffer, SDS-PAGE loading buffer was used to elute proteins from beads for immunoblotting.
We next tested whether over-expression of the hRpn2-derived peptide in 293T cells leads to the accumulation of ubiquitinated proteins. Lysates from cells transfected with HA-ubiquitin alone or together with either FLAG-hRpn2 (916–953) WT or F948Stop were subjected to immunoblotting with anti-ubiquitin antibody. Cells expressing F948Stop were used as a negative control, and immunoblotting with anti-actin antibody to confirm equivalent loading.

hRpn13 at the proteasome = assay: anti-hRpt3 immunoprecipitation of proteasome, immunoprobed for hRpn13 (displacement); type: cell-based, human; details: 293T cells over-expressing peptide; anti-hRpt3 IP, anti-hRpn13 immunoblot; Fig 6A
Experimental: (§2) The DNA fragment encoding amino acid 916 to 953 of hRpn2 was amplified by PCR and cloned into the bacterial expression vector pRSET and mammalian expression vector p3XFLAG-CMV7.1. Antibodies used in this study include anti-FLAG (Sigma), anti-hRpn2 (cell signaling), anti-hRpt3 (Abcam), and anti-hRpn13 (Abcam).
as §1, with “After extensive washing with 1% Triton TBS buffer, SDS-PAGE loading buffer was used to elute proteins from beads for immunoblotting.” left out
(§3) We next tested whether over-expression of the hRpn2-derived peptide depletes hRpn13 from the proteasome. For this purpose, we immunoprecipitated proteasome by anti-hRpt3 antibody and detected the presence of hRpn13 by immunoprobing with anti-hRpn13 antibody.

endogenous hRpn13 = assay: anti-FLAG immunoprecipitation, immunoprobed for endogenous hRpn13; type: cell-based, human; details: 293T cells transfected with p3XFLAG-CMV7.1 plasmid; anti-FLAG IP, anti-Rpn13 immunoblot
Experimental: as §1
The resulting plasmid was transfected into 293T cells and the cell lysate immunoprecipitated with anti-FLAG antibody.

Rpn13 Cys88 = details: ref [22]; cited from earlier work
Source text: (§4) hRpn13 functions in ovarian and colorectal cancer proliferation, and its knockdown triggers apoptosis in these and other cancer cell lines.

[2] = tested on: Rpn13 interdomain interactions; details: ref [22]; cited from earlier work
Source text: as §4

[3] = tested on: ubiquitin-mediated protein degradation; details: ref [22]; cited from earlier work
Source text: as §4

[4] = tested on: multiple myeloma and ovarian cancer xenografts; details: ref [22]; cited from earlier work
Source text: as §4

proteasome subunit hRpt3 = assay: anti-FLAG immunoprecipitation, immunoprobed for endogenous hRpt3; type: cell-based, human; details: 293T cells; anti-FLAG IP; Fig 5A
Experimental: as §2
as §1, with “immunoblotting. […]” for “immunoblotting.”

hRpn2 in the proteasome = assay: anti-hRpt3 immunoprecipitation of proteasome, immunoprobed for hRpn2; type: cell-based, human; details: 293T cells over-expressing peptide; anti-hRpt3 IP; Fig 6A
Experimental: as §2
as §1, with “After extensive washing with 1% Triton TBS buffer, SDS-PAGE loading buffer was used to elute proteins from beads for immunoblotting.” left out
as §3

proteasome subunit hRpn2 = assay: anti-FLAG immunoprecipitation, immunoprobed for endogenous hRpn2; type: cell-based, human; details: 293T cells; anti-FLAG IP; Fig 5A
Experimental: as §2
as §1, with “immunoblotting. […]” for “immunoblotting.”

hRpn13 (1–150) [5] = molecular target: T1, hRpn13 (1–150) (human, UniProt Q16186 1-150); assay: ITC; 200 μM hRpn2 (916-953) injected into 20 μM hRpn13 (1-150) in the cell; 25°C; 20 mM sodium phosphate, 50 mM NaCl, 10 mM βME, pH 6.5; one-site fit; details: both partners purified
T1 construct: human Rpn13/Adrm1, Pru (pleckstrin-like receptor for ubiquitin) domain, residues 1-150; also called hRpn13 Pru domain; hRpn13 Pru

hRpn13 (1–150) [6] = molecular target: T1, hRpn13 (1–150); assay: SEC + other: LC-MS; hRpn2 (916-953):hRpn13 Pru complex passed over a size exclusion column after mixing to remove excess component; molar ratio evaluated by LC-MS; details: both partners purified

T1 sequence (Q16186 1-150): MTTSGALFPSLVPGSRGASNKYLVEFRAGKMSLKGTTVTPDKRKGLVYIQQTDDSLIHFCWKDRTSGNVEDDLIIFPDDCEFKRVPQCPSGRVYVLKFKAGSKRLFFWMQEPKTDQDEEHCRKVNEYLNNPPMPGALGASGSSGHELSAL

F948Stop: FLAG-hRpn2 (916–953) variant with F948 replaced with a stop codon; negative control (DTSEDIEELVEPVAAHGPKIEEEEQEPEPPEP; not fully specified (N-terminus))
presence of ubiquitinated proteins in cell lysate [1]: increase was not observed
amount of hRpn13 at the proteasome (hRpn13 at the proteasome): does not deplete hRpn13 from proteasome
immunoprecipitation of / interaction with endogenous hRpn13 (endogenous hRpn13): does not bind hRpn13

F948 with arginine: FLAG-hRpn2 (916–953) variant with F948 replaced with arginine ({FLAG}-DTSEDIEELVEPVAAHGPKIEEEEQEPEPPEPREYIDD; UniProt Q99460 916-953, looked up, variant F948R)
immunoprecipitation of / interaction with endogenous hRpn13 (endogenous hRpn13): unable to immunoprecipitate endogenous hRpn13 from 293T cells

Cl.N[C@@H](Cc1ccccc1)C(=O)N1C/C(=C/c2ccc(Cl)c(Cl)c2)C(=O)/C(=C\c2ccc(Cl)c(Cl)c2)C1 [RA190]
covalent attachment to Rpn13 (Rpn13 Cys88): covalently attaches to Rpn13 Cys88
effect on Rpn13 interdomain interactions [2]: abrogates Rpn13 interdomain interactions
effect on ubiquitin-mediated protein degradation [3]: inhibits ubiquitin-mediated protein degradation
growth of multiple myeloma and ovarian cancer xenografts [4]: restricts growth of multiple myeloma and ovarian cancer xenografts

FLAG-hRpn2 (916–953) WT: hRpn2 (916–953) fragment in frame with an N-terminal FLAG tag, expressed from p3XFLAG-CMV7.1 in 293T cells ({FLAG}-DTSEDIEELVEPVAAHGPKIEEEEQEPEPPEPFEYIDD; UniProt Q99460 916-953, looked up, fragment)
presence of ubiquitinated proteins in cell lysate [1]: increase in the presence of ubiquitinated proteins
immunoprecipitation of endogenous hRpt3 (proteasome subunit hRpt3): neither of these RP components was immunoprecipitated by the peptide
assembly of hRpn2 into the proteasome (hRpn2 in the proteasome): not affected by expression of the hRpn2-derived peptide
amount of hRpn13 at the proteasome (hRpn13 at the proteasome): significantly reduced the amount of hRpn13 at the proteasome
immunoprecipitation of / interaction with endogenous hRpn13 (endogenous hRpn13): confirmed the interaction of the hRpn2-derived peptide with endogenous hRpn13 in 293T cells
immunoprecipitation of endogenous hRpn2 (proteasome subunit hRpn2): neither of these RP components was immunoprecipitated by the peptide

B1: hRpn2 (916–953) (peptide)
chain: GPGSDTSEDIEELVEPVAAHGPKIEEEEQEPEPPEPFEYIDD
notes: amino acids that remained at the N-terminal end from the PreScission protease tag after cleavage; human Rpn2/PSMD1, proteasome PC repeat protein, residues 916-953 (the C-terminal 38 amino acids); also called hRpn2-derived peptide; 38-amino acid peptide derived from the C-terminus of hRpn2/PSMD1; source: E. coli, purified (glutathione S-sepharose, PreScission cleavage, Superdex 75); not shown: …
Kd (hRpn13 (1–150) [5]): 12 nM
stoichiometry N (hRpn13 (1–150) [6]): 1
